According to patent US7919101B2 (priority 2008, dated 2011):
Like-named read-outs stand apart in the source and are kept apart here. Residues, ends and D or L forms follow the SMILES beside them. No end group written: not given here.

Key:
gp41 6-HB formation = gp41 6-HB formation (Human immunodeficiency virus type 1 group M subtype B, UniProt P04578); conditions: cited from earlier work
[1] = tested on: HIV-1 Env-mediated cell-cell fusion; conditions: cited from earlier work
HIV-1 = conditions: cited from earlier work
[2] = cited from earlier work
[3] = tested on: HIV-1-mediated cell-cell fusion (H9/HIV-1IIIB cells and MT-2 cells); experiment: HIV-1-mediated cell-cell fusion, dye transfer assay; format: cell-based
Description: The inhibitory activities of the compounds on HIV-induced cell-cell fusion were determined using a dye transfer assay (Jiang S et al. Proc SPIE 3926:212-219, 2000). Briefly, H9/HIV-1IIIB cells were pre-labeled with a fluorescent dye, Calcein AM (Molecular Probes, Inc.), and incubated with a testing compound at a graded concentration at 37° C. for 30 min in a 96-well cell culture plate. Then the CD4^+ MT-2 cells were added to the H9/HIV-1IIIB cells at a ratio of 10:1, followed by incubation at 37° C. for 2 hrs. The fused and unfused calcein-labeled HIV-1-infected cells were counted under an inverted fluorescence microscope with an eyepiece micrometer disc.

[4] = in combination T-20:Sifuvirtide (4:1)
[5] = in combination T-20:Sifuvirtide (4:1) vs alone

Sequence of gp41 6-HB formation (P04578 546-581): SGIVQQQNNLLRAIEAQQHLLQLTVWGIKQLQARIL

COc1ccc(S(=O)(=O)[O-])cc1N=Nc1c(S(=O)(=O)[O-])cc2cc(Nc3nc(Nc4ccccc4)nc(Nc4cc(C)c(N=Nc5cc(S(=O)(=O)[O-])cc6cc(S(=O)(=O)[O-])cc(O)c56)cc4OC)n3)ccc2c1O.[Na+].[Na+].[Na+].[Na+] [ADS-J1]
EC50, gp41 6-HB formation (in words) (gp41 6-HB formation): low μM range | EC50, HIV-1 mediated cell-cell fusion (in words) [1]: low μM range | EC50, HIV infection / replication (in words) (HIV-1): low μM range

CC[C@H](C)[C@H](NC(=O)[C@H](CCC(=O)O)NC(=O)[C@H](CCCNC(=N)N)NC(=O)[C@H](CCC(=O)O)NC(=O)[C@H](Cc1c[nH]c2ccccc12)NC(=O)[C@@H](NC(=O)[C@H](CCC(=O)O)NC(=O)[C@H](Cc1c[nH]c2ccccc12)NC(=O)[C@@H](N)CO)[C@@H](C)O)C(=O)N[C@@H](CCC(=O)O)C(=O)N[C@@H](CC(N)=O)C(=O)N[C@@H](Cc1ccc(O)cc1)C(=O)N[C@H](C(=O)N[C@@H](CCCCN)C(=O)N[C@@H](CCC(N)=O)C(=O)N[C@H](C(=O)N[C@@H](Cc1ccc(O)cc1)C(=O)N[C@@H](CCCCN)C(=O)N[C@H](C(=O)N[C@@H](CC(C)C)C(=O)N[C@@H](CCC(=O)O)C(=O)N[C@@H](CCC(=O)O)C(=O)N[C@@H](CO)C(=O)N[C@@H](CCC(N)=O)C(=O)N[C@@H](CCC(=O)O)C(=O)N[C@@H](CCC(N)=O)C(=O)N[C@@H](CCC(N)=O)C(=O)N[C@@H](CC(=O)O)C(=O)N[C@@H](CCCNC(=N)N)C(=O)N[C@@H](CC(N)=O)C(=O)N[C@@H](CCC(=O)O)C(=O)N[C@@H](CCCCN)C(=O)N[C@@H](CC(=O)O)C(=O)N[C@@H](CC(C)C)C(=O)N[C@@H](CC(C)C)C(=O)N[C@@H](CCC(=O)O)C(=O)O)[C@@H](C)CC)[C@@H](C)CC)[C@@H](C)O [Sifuvirtide] (H-SWETWEREIENYTKQIYKILEESQEQQDRNEKDLLE-OH; N-terminus and C-terminus assumed)
decay half-life ([2]; multiple administration): 26.0 ± 7.9 h | decay half-life ([2]; single administration): 20.0 ± 8.6 h | EC70 Concentration Mix [3, 4]: 0.589 nM | EC95 Concentration Mix [3, 4]: 0.884 nM | Potency increase at EC50 [3, 5]: 35.424 fold | Potency increase at EC70 [3, 5]: 35.075 fold | Potency increase at EC90 [3, 5]: 34.771 fold | Potency increase at EC95 [3, 5]: 34.564 fold | EC50 ([3]; in combination T-20:Sifuvirtide (4:1), read-out: EC50 Concentration Mix): 0.462 nM | EC90 ([3]; in combination T-20:Sifuvirtide (4:1), read-out: EC90 Concentration Mix): 0.75 nM | EC70 Concentration Alone ([3]; peptide tested alone): 20.659 nM | EC95 Concentration Alone ([3]; peptide tested alone): 30.555 nM | EC50 ([3]; peptide tested alone, read-out: EC50 Concentration Alone): 16.4 nM | EC90 ([3]; peptide tested alone, read-out: EC90 Concentration Alone): 26.1 nM

short all D-amino acid peptide; SEQ ID NO:25 KGACDYPEWQWLCAA [PIE7]
EC50, HIV infection / replication (in words) (HIV-1): low micromolar range

short all D-amino acid peptide; SEQ ID NO:24 KGACELLGWEWAWLCAA [D10-p5-2K]
EC50, HIV infection / replication (in words) (HIV-1): low micromolar range

NHR-peptide, disulfide-stabilized helical trimer; SEQ ID NO:48 SGIVQQQNNLLRAIEAQQHLLQLTVWGIKQCCGR (not fully specified (bridges); also: disulfide-stabilized helical trimer) [N34ccg]
EC50 ([1]; read-out: EC50, HIV-induced cell-cell fusion): 95 nM
